IC50 data for 27 compounds are collected here from patent US11413292B2, “Tricyclic heterocycle compounds useful as HIV integrase inhibitors” (Merck Sharp & Dohme Corp., priority 2018, dated 2022).

The subject of the test is HIV-1 (H9/IIIB strain) virus. Kind of test: microbe, parasite or virus in culture. The format is cell-based. Particulars: MT4-GFP cells infected with HIV-1 H9/IIIB, inhibition of reproductive ratio.
The mark [1] stands for this setting: 0% NHS condition (RPMI 1640), read-out: Viking, IC50 (0% NHS).
[2] abbreviates: 100% normal human serum (NHS) condition, read-out: Viking, IC50 (100% NHS).
The mark [3] stands for this setting: Human immunodeficiency virus 1, IIIB, 0% NHS condition (RPMI 1640), read-out: Viking, IC50 (0% NHS).
The mark [4] stands for this setting: 100% normal human serum (NHS) condition, 2,2,2-trifluoroacetate, read-out: Viking, IC50 (100% NHS).

Where two headings read alike, the source gives them in different places.

`O=C(NCc1c(F)cc(F)cc1F)c1cn2c(c(O)c1=O)C(=O)N1CCC(F)(F)CCN2C1` (single isomer, unassigned) [Example 7B, 4,4-difluoro-9-hydroxy-8,10-dioxo-N-(2,4,6-trifluorobenzyl)-3,4,5,6,8,10-hexahydro-2H-1,7-methanopyrido[1,2-b][1,2,5]triazecine-11-carboxamide]: the IC50 was 2.16 nM under setting [1] and 73.9 nM under setting [2].
In the case of `O=C(NCc1c(F)cc(F)cc1F)c1cn2c(c(O)c1=O)C(=O)N1CCC(O)CCN2C1` (single isomer, unassigned) [Example 17A], the IC50 is 66.1 nM under setting [1] and 1270 nM under setting [2].
As to `O=C(NCc1cccc(Cl)c1F)c1cn2c(c(O)c1=O)C(=O)N1CCCCCN2C1` [Example 9A], the IC50 reads like this: under setting [1], 2.57 nM; under setting [2], 5620 nM.
Take `COC1CCN2CN(CC1)n1cc(C(=O)NCc3c(F)ccc(Cl)c3F)c(=O)c(O)c1C2=O` (single isomer, unassigned) [Example 19C]: the IC50 is 3.5 nM under setting [1] and 245 nM under setting [2].
On to `O=C(NCc1ccc(F)cc1F)c1cn2c(c(O)c1=O)C(=O)N1CCCCN2C1` [Example 2A], for which the IC50 reads like this: under setting [1], 4.04 nM; under setting [2], 4160 nM.
On the same counts, the results for `COC1CCN2CN(CC1)n1cc(C(=O)NCc3c(F)cc(F)cc3F)c(=O)c(O)c1C2=O` (single isomer, unassigned) [Example 5C, 9-hydroxy-4-methoxy-8,10-dioxo-N-(2,4,6-trifluorobenzyl)-3,4,5,6,8,10-hexahydro-2H-1,7-methanopyrido[1,2-b][1,2,5]triazecine-11-carboxamide] are 1.68 nM and 62.8 nM.
`COC1CCN2CN(CC1)n1cc(C(=O)NCc3cccc(F)c3F)c(=O)c(O)c1C2=O` (single isomer, unassigned) [Example 23A]: the IC50 under setting [1] amounted to 5.8 nM and the IC50 under setting [2] was 728 nM.
`O=C(NCc1ccc(F)c(Cl)c1F)c1cn2c(c(O)c1=O)C(=O)N1CCCCCN2C1` [Example 10B]: the IC50 stood at 1.65 nM under setting [1] and 225 nM under setting [2].
As for `O=C(NCc1ccc(F)cc1F)c1cn2c(c(O)c1=O)C(=O)N1CCCCN2C1` [Example 2B], the IC50 stood at 1.53 nM under setting [1] and 234 nM under setting [2].
Take `COC1CCN2CN(CC1)n1cc(C(=O)NCc3c(F)cccc3F)c(=O)c(O)c1C2=O` (single isomer, unassigned) [Example 22A]: the IC50 under setting [1] amounted to 8.2 nM and the IC50 under setting [2] turned out to be 333 nM.
Consider `O=C(NCc1c(F)cc(F)cc1F)c1cn2c(c(O)c1=O)C(=O)N1CCC(O)CCN2C1` (single isomer, unassigned) [Example 17D], for which the IC50 came to 25.6 nM under setting [1] and 717 nM under setting [2].
As to `CN1CCN2CN(CC1)n1cc(C(=O)NCc3c(F)ccc(Cl)c3F)c(=O)c(O)c1C2=O` [Example 25A], the IC50 worked out at 4.5 nM under setting [1] and 1000 nM under setting [2].
For `O=C(NCc1c(F)ccc(Cl)c1F)c1cn2c(c(O)c1=O)C(=O)N1CCCCCCN2C1` [Example 12A], in that order: 14.3 nM and 10700 nM.
In the case of `O=C(NCc1ccc(F)cc1F)c1cn2c(c(O)c1=O)C(=O)N1CCC(F)(F)CCN2C1` [Example 26B], the IC50 runs as follows: under setting [1], 3.2 nM; under setting [2], 91 nM.
For `COC1CCN2CN(CC1)n1cc(C(=O)NCc3ccc(F)cc3F)c(=O)c(O)c1C2=O` (single isomer, unassigned) [Example 20A], in that order: 3.3 nM and 88 nM.
On to `O=C(NCc1ccc(F)cc1F)c1cn2c(c(O)c1=O)C(=O)N1CCCCCCN2C1` (single isomer, unassigned) [Example 3B, N-(2,4-difluorobenzyl)-10-hydroxy-9,11-dioxo-2,3,4,5,6,7,9,11-octahydro-1,8-methanopyrido[1,2-b][1,2,5]triazacycloundecine-12-carboxamide], for which the IC50 reads like this: under setting [1], 5.23 nM; under setting [2], 1880 nM.
`O=C(NCc1ccc(F)cc1F)c1cn2c(c(O)c1=O)C(=O)N1CCOCCN2C1` (single isomer, unassigned) [Example 4B, N-(2,4-difluorobenzyl)-9-hydroxy-8,10-dioxo-2,3,5,6,8,10-hexahydro-1,7-methanopyrido[1,2-e][1,4,5,8]oxatriazecine-11-carboxamide]: the IC50 was 197 nM under setting [2] and 1.78 nM under setting [3].
In the case of `COC1CCN2CN(CC1)n1cc(C(=O)NCc3cccc(Cl)c3F)c(=O)c(O)c1C2=O` (single isomer, unassigned) [Example 18A], the half-maximal inhibitory concentration (IC50) was 3.1 nM under setting [1] and 279 nM under setting [2].
On to `O=C(NCc1ccc(F)cc1F)c1cn2c(c(O)c1=O)C(=O)N1CCCCCN2C1` [Example 8B], for which the IC50 is 0.86 nM under setting [1] and 122 nM under setting [2].
Take `COC1CCN2CN(CC1)n1cc(C(=O)NCc3c(F)cc(F)cc3F)c(=O)c(O)c1C2=O` (single isomer, unassigned) [Example 5A, 9-hydroxy-4-methoxy-8,10-dioxo-N-(2,4,6-trifluorobenzyl)-3,4,5,6,8,10-hexahydro-2H-1,7-methanopyrido[1,2-b][1,2,5]triazecine-11-carboxamide]: the IC50 under setting [1] was 3.2 nM and the IC50 under setting [2] is 67.2 nM.
Take `O=C(NCc1c(F)ccc(Cl)c1F)c1cn2c(c(O)c1=O)C(=O)N1CCCCCCN2C1` [Example 12B]: the IC50 reads like this: under setting [1], 3.21 nM; under setting [2], 428 nM.
For the compound `CN1CCN2CN(CC1)n1cc(C(=O)NCc3c(F)cc(F)cc3F)c(=O)c(O)c1C2=O` (single isomer, unassigned) [Example 6A, 9-hydroxy-4-methyl-8,10-dioxo-N-(2,4,6-trifluorobenzyl)-3,4,5,6,8,10-hexahydro-2H-1,7-methanopyrido[1,2-b][1,2,5,8]tetrazecine-11-carboxamide 2,2,2-trifluoroacetate], the 50% inhibitory concentration (IC50) under setting [4] was found to be 169 nM and the IC50 under setting [3] is 4.64 nM.
In the case of `COC1CCN2CN(CC1)n1cc(C(=O)NCc3ccc(F)cc3F)c(=O)c(O)c1C2=O` (single isomer, unassigned) [Example 20C], the IC50 reads like this: under setting [1], 7.5 nM; under setting [2], 606 nM.
In the case of `COC1CCN2CN(CC1)n1cc(C(=O)NCc3c(F)cc(F)cc3F)c(=O)c(O)c1C2=O` (single isomer, unassigned) [Example 5B, 9-hydroxy-4-methoxy-8,10-dioxo-N-(2,4,6-trifluorobenzyl)-3,4,5,6,8,10-hexahydro-2H-1,7-methanopyrido[1,2-b][1,2,5]triazecine-11-carboxamide], the IC50 reads like this: under setting [1], 1.93 nM; under setting [2], 124 nM.
Consider `O=C(NCc1ccc(F)cc1F)c1cn2c(c(O)c1=O)C(=O)N1CCC(F)(F)CCN2C1` [Example 26A], for which the IC50 is, setting by setting: under setting [1], 6.6 nM; under setting [2], 869 nM.
Consider `O=C(NCc1ccc(F)cc1F)c1cn2c(c(O)c1=O)C(=O)N1CCCCCN2C1` [Example 8A], for which the IC50 is 1.03 nM under setting [1] and 1570 nM under setting [2].
Consider `CN1CCN2CN(CC1)n1cc(C(=O)NCc3c(F)cc(F)cc3F)c(=O)c(O)c1C2=O` (single isomer, unassigned) [Example 6B, 9-hydroxy-4-methyl-8,10-dioxo-N-(2,4,6-trifluorobenzyl)-3,4,5,6,8,10-hexahydro-2H-1,7-methanopyrido[1,2-b][1,2,5,8]tetrazecine-11-carboxamide 2,2,2-trifluoroacetate], for which the IC50 reads like this: (0% NHS condition (RPMI 1640), 2,2,2-trifluoroacetate, read-out: Viking, IC50 (0% NHS)) 2.4 nM; under setting [4], 80.2 nM.

The IC50 is the concentration needed to halve the response being measured.
